Measured values as given in patent US12378224B2 (Dong-A Socio Holdings Co., Ltd., priority 2016, dated 2025).

The compounds below were run against human MER (528-end) (Homo sapiens (Human), UniProt Q12866) (assay: HTRF Kinase Activity Biochemical Assay (KinEASE-TK)). Settings: 10 uM ATP.
Experimental: For the SAR (structure-activity relationship) and compound screening, HTRF (Homogeneous Time Resolved Fluorescence) kinase activity assay was employed for all MER, AXL and TYRO3 kinases using Cisbio HTRF® KinEASE™-TK kit (Cisbio, USA). The kit includes biotin-labeled TK substrate, streptavidin-XL665, Eu3+-cryptate-labeled TK antibody and HTRF® Detection buffer. There are two main steps in the kinase assay: kinase reaction and detection of phosphorylated substrate. The reaction was carried out in white low volume 384-well plate (Corning, USA) with 25 nL compound in dimethyl sulfoxide in each well. […] Then the reaction was stopped after 1 hour incubation at room temperature by adding 5 uL of HTRF® Detection buffer which also contains 0.375 nM Eu3+-cryptate-labeled TK antibody and 0.062 uM streptavidin-XL665(SA-XL665) to allow for detection of the phosphorylated peptide product. After 1 h incubation at room temperature, the fluorescence intensity was measured with Envision™ plate reader (PerkinElmer, USA). Upon excitation at 340 nm by UV, the energy from Eu3+ donor of the antibody is transferred to the FRET acceptor XL665, and […] emits light at 665 nm. The level of kinase activity was quantified by the HTRF ratio that calculated from the intensity of emission at 665 nm and emission at 620 nm (fluorescence intensity @ 665 nm/fluorescence intensity @ 620 nm×10,000). The recombinant protein of human MER (528-end) was purchased from Carnabio, Japan. The recombinant human AXL (473-end) and TYRO3 (455-end) were purchased from SignalChem, Canada.

human MER (528-end), sequence (Q12866 528-999 limits assumed): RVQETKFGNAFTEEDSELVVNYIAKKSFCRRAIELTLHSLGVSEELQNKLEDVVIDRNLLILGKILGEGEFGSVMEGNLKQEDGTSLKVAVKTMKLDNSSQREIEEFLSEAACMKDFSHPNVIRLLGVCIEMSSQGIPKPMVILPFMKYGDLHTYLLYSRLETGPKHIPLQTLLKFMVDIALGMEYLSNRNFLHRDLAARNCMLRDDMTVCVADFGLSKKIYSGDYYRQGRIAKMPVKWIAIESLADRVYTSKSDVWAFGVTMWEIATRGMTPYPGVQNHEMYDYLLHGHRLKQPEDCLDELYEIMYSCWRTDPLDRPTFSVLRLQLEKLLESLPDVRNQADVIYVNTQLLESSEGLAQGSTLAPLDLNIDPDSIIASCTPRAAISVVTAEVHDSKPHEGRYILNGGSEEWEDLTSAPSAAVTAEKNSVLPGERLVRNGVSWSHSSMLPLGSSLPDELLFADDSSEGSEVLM

IC50	SMILES
> 1000 nM	Cn1cc(-c2cnc(N)c(C(=O)N[C@@H]3CCN(C(=O)Nc4ccc(-c5ccc(CN)cc5)cc4)C3)c2)cn1 [Example 270, (R)-2-amino-N-(1-((4′-(aminomethyl)-[1,1′-biphenyl]-4-yl)carbamoyl)pyrrolidin-3-yl)-5-(1-methyl-1H-pyrazol-4-yl)nicotinamide]
> 1000 nM	Cn1cc(-c2cnc(N)c(C(=O)N[C@@H]3CCN(C(=O)c4cccc(Oc5ccccc5)c4)C3)c2)cn1 [Example 412, (R)-2-amino-5-(1-methyl-1H-pyrazol-4-yl)-N-(1-(3-phenoxybenzoyl)pyrrolidin-3-yl)nicotinamide]
100 to 1000 nM	Cn1cc(-c2cnc(N)c(C(=O)N[C@@H]3CCN(C(=O)c4ccc(Oc5ccccc5)cc4)C3)c2)cn1 [Example 731, (R)-2-amino-5-(1-methyl-1H-pyrazol-4-yl)-N-(1-(4-phenoxybenzoyl)pyrrolidin-3-yl)nicotinamide]
> 1000 nM	CC(c1ccc(Cl)c(Cl)c1)N1CC[C@@H](NC(=O)c2cc(-c3cnn(C4CCNCC4)c3)cnc2N)C1 (stereo partly drawn) [Example 150, 2-amino-N-((3R)-1-(1-(3,4-dichlorophenyl)ethyl)pyrrolidin-3-yl)-5-(1-(piperidin-4-yl)-1H-pyrazol-4-yl)nicotinamide]
> 1000 nM	COC(=O)c1ccccc1OC(=O)N1CC[C@@H](NC(=O)c2cc(-c3cnn(C)c3)cnc2N)C1 [Example 92, 2-(methoxycarbonyl)phenyl (R)-3-(2-amino-5-(1-methyl-1H-pyrazol-4-yl)nicotinamido)pyrrolidine-1-carboxylate]
> 1000 nM	Cn1cc(-c2cnc(N)c(C(=O)N[C@@H]3CCN(C(=O)Oc4ccc(Cl)cc4C4CCCCC4)C3)c2)cn1 [Example 75, 4-chloro-2-cyclohexylphenyl (R)-3-(2-amino-5-(1-methyl-1H-pyrazol-4-yl)nicotinamido)pyrrolidine-1-carboxylate]
> 1000 nM	Cn1cc(-c2cnc(N)c(C(=O)N[C@@H]3CCN(C(=O)Oc4cc([N+](=O)[O-])ccc4N)C3)c2)cn1 [Example 100, 2-amino-5-nitrophenyl (R)-3-(2-amino-5-(1-methyl-1H-pyrazol-4-yl)nicotinamido)pyrrolidine-1-carboxylate]
> 1000 nM	Cn1cc(-c2cnc(N)c(C(=O)N[C@@H]3CCN(C(=O)C4Cc5cc(Cl)ccc5O4)C3)c2)cn1 (stereo partly drawn) [Example 404, 2-amino-N-((3R)-1-(5-chloro-2,3-dihydrobenzofuran-2-carbonyl)pyrrolidin-3-yl)-5-(1-methyl-1H-pyrazol-4-yl)nicotinamide]
> 1000 nM	Cn1cc(-c2cnc(N)c(C(=O)N[C@@H]3CCN(C(=O)/C=C/c4cccc(Br)c4)C3)c2)cn1 [Example 428, (R,E)-2-amino-N-(1-(3-(3-bromophenyl)acryloyl)pyrrolidin-3-yl)-5-(1-methyl-1H-pyrazol-4-yl)nicotinamide]
> 1000 nM	Cn1cc(-c2cnc(N)c(C(=O)N[C@@H]3CCN(C(=O)O[C@H]4C[C@@H]5CC[C@H]4C5)C3)c2)cn1 [Example 109, (1S,2S,4R)-bicyclo[2.2.1]heptan-2-yl (R)-3-(2-amino-5-(1-methyl-1H-pyrazol-4-yl)nicotinamido)pyrrolidine-1-carboxylate]
> 1000 nM	COc1ccc(O)c(CN2CC[C@@H](NC(=O)c3cc(-c4cnn(C)c4)cnc3N)C2)c1 [Example 219, (R)-2-amino-N-(1-(2-hydroxy-5-methoxybenzyl)pyrrolidin-3-yl)-5-(1-methyl-1H-pyrazol-4-yl)nicotinamide]
100 to 1000 nM	COc1cccc(CN2CC[C@@H](NC(=O)c3cc(-c4cnn(C5CCNCC5)c4)cnc3N)C2)c1 [Example 154, (R)-2-amino-N-(1-(3-methoxybenzyl)pyrrolidin-3-yl)-5-(1-(piperidin-4-yl)-1H-pyrazol-4-yl)nicotinamide]
> 1000 nM	Cn1cc(-c2cnc(N)c(C(=O)N[C@@H]3CCN(C(=O)c4cccc(-c5ccccc5)c4)C3)c2)cn1 [Example 450, (R)—N-(1-([1,1′-biphenyl]-3-carbonyl)pyrrolidin-3-yl)-2-amino-5-(1-methyl-1H-pyrazol-4-yl)nicotinamide]
100 to 1000 nM	Nc1ncc(Br)cc1C(=O)N[C@@H]1CCN(C(=O)c2ccc(-c3ccc(F)cc3Cl)cc2)C1 [Example 580, (R)-2-amino-5-bromo-N-(1-(2′-chloro-4′-fluoro-[1,1′-biphenyl]-4-carbonyl)pyrrolidin-3-yl)nicotinamide]
> 1000 nM	COC(=O)[C@@H]1C[C@H](NC(=O)c2cc(-c3cnn(C)c3)cnc2N)CN1C(=O)c1cccc(-c2ccccc2)c1 [Example 686, methyl (2S,4S)-1-([1,1′-biphenyl]-3-carbonyl)-4-(2-amino-5-(1-methyl-1H-pyrazol-4-yl)nicotinamido)pyrrolidine-2-carboxylate]
> 1000 nM	Cn1cc(-c2cnc(N)c(C(=O)N[C@@H]3CCN(C(=O)Oc4cccc(-c5ccc(C(=O)O)cc5)c4)C3)c2)cn1 [Example 278, (R)-3′-((3-(2-amino-5-(1-methyl-1H-pyrazol-4-yl)nicotinamido)pyrrolidine-1-carbonyl)oxy)-[1,1′-biphenyl]-4-carboxylic acid]
> 1000 nM	Cn1cc(-c2cnc(N)c(C(=O)N[C@@H]3CCN(C(=O)OCc4ccccc4)C3)c2)cn1 [Example 80, benzyl (R)-3-(2-amino-5-(1-methyl-1H-pyrazol-4-yl)nicotinamido)pyrrolidine-1-carboxylate]
10 to 100 nM	Cn1cc(-c2cnc(N)c(C(=O)N[C@@H]3CCN(C(=O)c4ccc(-c5cc(F)cc(Cl)c5)cc4)C3)c2)cn1 [Example 663, (R)-2-amino-N-(1-(3′-chloro-5′-fluoro-[1,1′-biphenyl]-4-carbonyl)pyrrolidin-3-yl)-5-(1-methyl-1H-pyrazol-4-yl)nicotinamide]
100 to 1000 nM	Cn1cc(-c2cnc(N)c(C(=O)N[C@@H]3CCN(C(=O)c4ccc(-c5ccc(C(N)=O)c(F)c5)cc4)C3)c2)cn1 [Example 680, (R)-2-amino-N-(1-(4′-carbamoyl-3′-fluoro-[1,1′-biphenyl]-4-carbonyl)pyrrolidin-3-yl)-5-(1-methyl-1H-pyrazol-4-yl)nicotinamide]
> 1000 nM	Cn1cc(-c2cnc(N)c(C(=O)N[C@@H]3CCN(C(=O)Oc4cccc(Cl)c4Cl)C3)c2)cn1 [Example 60, 2,3-dichlorophenyl (R)-3-(2-amino-5-(1-methyl-1H-pyrazol-4-yl)nicotinamido)pyrrolidine-1-carboxylate]
> 1000 nM	Cn1cc(-c2cnc(N)c(C(=O)N[C@@H]3CCN(C(=O)c4ccc(Oc5ccc(CN6CCC[C@@H]6CO)cc5)cc4)C3)c2)cn1 [Example 449]
> 1000 nM	Cn1cc(-c2cnc(N)c(C(=O)N[C@@H]3CCN(C(=O)c4ccccc4)C3)c2)cn1 [Example 438, (R)-2-amino-N-(1-benzoylpyrrolidin-3-yl)-5-(1-methyl-1H-pyrazol-4-yl)nicotinamide]
> 1000 nM	CN1CCN(Cc2ccc(Oc3cccc(C(=O)N4CC[C@@H](NC(=O)c5cc(-c6cnn(C)c6)cnc5N)C4)c3)cc2)CC1 [Example 446, (R)-2-amino-5-(1-methyl-1H-pyrazol-4-yl)-N-(1-(3-(4-((4-methylpiperazin-1-yl)methyl)phenoxy)benzoyl)pyrrolidin-3-yl)nicotinamide]
> 1000 nM	Cn1cc(-c2cnc(N)c(C(=O)N[C@@H]3CCN(C(=O)c4cccc(-c5cccc(NS(C)(=O)=O)c5)c4)C3)c2)cn1 [Example 481, (R)-2-amino-5-(1-methyl-1H-pyrazol-4-yl)-N-(1-(3′-(methylsulfonamido)-[1,1′-biphenyl]-3-carbonyl)pyrrolidin-3-yl)nicotinamide]
> 1000 nM	CCOC(=O)C1CN(C(=O)c2cccc(-c3ccccc3)c2)CC1NC(=O)c1cc(-c2cnn(C)c2)cnc1N (centres unmarked) [Example 688, ethyl 1-([1,1′-biphenyl]-3-carbonyl)-4-(2-amino-5-(1-methyl-1H-pyrazol-4-yl)nicotinamido)pyrrolidine-3-carboxylate]

SMILES	IC50
CN1CCN(c2cc(-c3cccc(OC(=O)N4CC[C@@H](NC(=O)c5cc(-c6cnn(C)c6)cnc5N)C4)c3)ccn2)CC1 [Example 290, 3-(2-(4-methylpiperazin-1-yl)pyridin-4-yl)phenyl (R)-3-(2-amino-5-(1-methyl-1H-pyrazol-4-yl)nicotinamido)pyrrolidine-1-carboxylate]	> 1000 nM
CN1CCC(n2cc(-c3cnc(N)c(C(=O)N[C@@H]4CCN(C(=O)Oc5cccc(-c6ccccc6)c5)C4)c3)cn2)CC1 [Example 96, [1,1′-biphenyl]-3-yl (R)-3-(2-amino-5-(1-(1-methylpiperidin-4-yl)-1H-pyrazol-4-yl)nicotinamido)pyrrolidine-1-carboxylate]	100 to 1000 nM
Cn1cc(-c2cnc(N)c(C(=O)NC[C@@H]3CCN(C(=O)c4cccc(-c5ccccc5)c4)C3)c2)cn1 [Example 739]	> 1000 nM
Cn1cc(-c2cnc(N)c(C(=O)N[C@@H]3CCN(C(=O)Oc4cccc(-c5ccc(CN6CCC(CO)CC6)cc5)c4)C3)c2)cn1 [Example 321, 4′-((4-(hydroxymethyl)piperidin-1-yl)methyl)-[1,1′-biphenyl]-3-yl (R)-3-(2-amino-5-(1-methyl-1H-pyrazol-4-yl)nicotinamido)pyrrolidine-1-carboxylate]	100 to 1000 nM
